Holding throughout (assay): inhibition of tumour cell growth, NCI panel, 48 h
The subject of assay [1] is NCI/ADR-RES ovarian.
For assay [2], the system named is HOP-62 NSCLC.
In assay [3] the test system is M14 melanoma.
For assay [4], the system named is NCI-H23 lung.
Assay [5] has as its system OVCAR-8 ovarian.
The test system of assay [6] is OVCAR-3 ovarian.
Assay [7] has as its system SK-OV-3 ovarian.
Assay [8] deals with UO-31 renal.
Assay [9] has as its system SR leukemia.
The subject of assay [10] is HL-60(TB) leukemia.

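Method: 48-hour compound exposure of cells in 96-well plates, five concentrations, linear interpolation of endpoints. GI50 marks 50% less growth. TGI marks complete inhibition of growth.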

For the molecule `NC(=NCCO)c1ccc(N2CCCN(c3ccc(C(N)=NCCO)cc3)CC2)cc1`, the GI50 in [1] is above 100 µM; in assay [2], 91.7 µM; in [3], above 100 µM; in [4], above 100 µM; in assay [5], above 100 µM; in assay [6], above 100 µM. Besides, the TGI in [1], in [2], in assay [3], in [4], in assay [5] and in [6] was above 100 µM each time.
Consider `Cc1ccc(S(=O)(=O)N[C@@H](Cc2ccccc2)C(=O)CCl)cc1`, for which the GI50 was 22.3 µM in [1]; 47.5 µM in assay [7]; 16.3 µM in assay [8]; 19.9 µM in [3]; 20.5 µM in assay [4]; 17.8 µM in assay [5]. In [6], the GI50 was 9.5 µM. Besides, the TGI in assay [1] was 65.7 µM; in assay [2], 39.8 µM; in [7], above 100 µM; in [8], 39 µM; in assay [3] it was 63.1 µM; in assay [4] it was 51.4 µM. Moreover, the TGI in assay [5] is above 100 µM; in assay [6], 24.2 µM.
`OCC#CCCCCOCC#Cc1ccccc1C#CCOCCCCC#CCO`: the GI50 was 23.6 µM in assay [1]; 43.6 µM in assay [9]; 55.5 µM in assay [8]; 31.2 µM in assay [3]; 23 µM in [4]; 36.2 µM in assay [10]. Further, the GI50 in assay [5] is 52.3 µM; in assay [6], 18.7 µM. Moreover, the TGI is 57.9 µM in assay [1]; above 100 µM in [9]; above 100 µM in assay [8]; above 100 µM in assay [3]; 48.8 µM in [4]; above 100 µM in assay [10]. Also, the TGI is above 100 µM in [5] and 45.7 µM in assay [6].
In the case of `C[C@@H]1CC[C@@H]2[C@@H]1[C@H](OC(=O)c1ccc3ccccc3c1)[C@]1(C3CCCCC3)C[C@@H](OC(=O)CO)[C@@]2(C)O1`, the GI50 in [1] was 0.543 µM; in assay [9] it was 3.4 µM; in [2], 12.8 µM; in assay [7], 14.4 µM; in assay [3], 13.2 µM; in assay [4], 14.3 µM. The GI50 in assay [10] was 9.23 µM; in [5] it was 5.62 µM; in assay [6], 12.9 µM. For the same molecule, the TGI in [1] stood at 19.4 µM; in assay [9] it was 14.4 µM; in assay [2], 25.6 µM; in [7] it was 29 µM; in assay [3], 30.2 µM; in assay [4], 33.2 µM. For the same molecule, the TGI in [10] was 30.6 µM; in assay [5] it was 26.5 µM; in assay [6] it was 27.1 µM.
For `CNC1=CC(=O)C2=C(C1=O)C1C3=C(C(=O)C(Br)=C(OC)C3=O)C2c2ccccc21` (stereo unspecified), the GI50 in [1] was 1.55 µM; in assay [2] it was 1.55 µM; in assay [7], 2.15 µM; in assay [8], 1.98 µM; in assay [3], 6.76 µM; in assay [4] it was 4.44 µM. The results for the GI50 in [5] and in [6] were 3.87 µM and 1.5 µM, respectively. The TGI in assay [1] is 8.18 µM; in [2] it was 4.61 µM; in assay [7], above 50 µM; in [8], 5.87 µM; in [3] it was 17.1 µM; in assay [4], 16 µM. For the same molecule, the TGI in assay [5] is above 50 µM; in assay [6], 3.1 µM.
In the case of `C=C[Si](C)(C)COC(=O)/C(C#N)=C/C=C/c1ccccc1`, the TGI is 79.9 µM in assay [9]; above 100 µM in assay [2]; above 100 µM in [7]; above 100 µM in assay [8]; above 100 µM in assay [3]; above 100 µM in [4]. Also, the TGI in assay [10], in [5] and in assay [6] was above 100 µM in each case.
As to `CCOC(=O)C1=C(c2ccccc2)NC(c2ccccc2)=C(C(=O)OCC)c2c1c(=O)cc[nH]c2=O`, the TGI in [9], in assay [2], in [7], in [8], in assay [3] and in assay [4] was above 100 µM throughout. Further, the TGI in assay [10], in [5] and in assay [6] was above 100 µM each time.
Consider `COc1ccc(C2CC(c3cccc(OC)c3)=NN2C(=O)c2cc(OC)c(OC)c(OC)c2)cc1` (stereo unspecified), for which the GI50 in [1] was 1.55 µM; in [9] it was 0.359 µM; in [2], above 23.1 µM; in [7], 3.66 µM; in assay [8], 1.59 µM; in [3], 1.56 µM. Moreover, the GI50 in assay [4] is 2.76 µM; in assay [10] it was 0.609 µM; in assay [5], 5.83 µM. Moreover, the TGI in assay [1] is above 21.1 µM; in [9], above 100 µM; in [2], above 100 µM; in assay [7], above 100 µM; in [8], above 100 µM; in assay [3], above 29.3 µM. The TGI in assay [4] and in assay [5] was above 100 µM throughout.
As to `CNC(C)[C@H]1CCC2C3CCC4C[C@@H](N(C)C(=O)c5ccccc5)CC[C@]4(C)C3CC[C@@]21C` (stereo partly specified), the GI50 in [1] is 2.57 µM; in assay [2], 1.43 µM; in assay [7], 2.06 µM; in assay [8], 0.794 µM; in assay [3], 1.3 µM; in assay [4], 0.737 µM. The GI50 in assay [10] was 1.58 µM; in [5], 3.44 µM; in assay [6] it was 1.22 µM. Further, the TGI in [1] is 15.5 µM; in [2] it was 3.17 µM; in assay [7], 5.29 µM; in assay [8] it was 2.69 µM; in assay [3], 2.95 µM; in [4] it was 4.96 µM. The results for the TGI in assay [10], in [5] and in [6] were 4.28 µM, 23.2 µM and 3.99 µM, respectively.
As for `Clc1ccc(-c2nc(C(Cl)Cl)nc3cc(-c4ccccc4)nn23)cc1`, the GI50 is 1.27 µM in assay [1]; 0.645 µM in assay [9]; 1.22 µM in assay [2]; 1.38 µM in [7]; 2.04 µM in assay [8]; 0.947 µM in assay [4]. In addition, the GI50 in assay [5] was 1.44 µM; in assay [6], 0.925 µM. Also, the TGI in assay [1] is above 50 µM; in assay [9] it was 3.94 µM; in assay [2] it was 4.57 µM; in [7], 4.75 µM; in assay [8], above 50 µM; in [4] it was 2.64 µM. For the same molecule, the TGI in assay [5] is above 50 µM; in assay [6], 2.01 µM.

The values are drawn from PubChem BioAssay (NCI).
